Laboratory results: the supplement of paper PMC8612539
Converted amounts (≈) assume the structure as drawn.

System: Pasteurella multocida
Test: minimum inhibitory concentration (MIC)
Experimental: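 Broth microdilution MIC (Sensititre BOPO7F bovine plate, CLSI methods) of 19 antimicrobials against field isolates of P. multocida, M. haemolytica, H. somni (deep nasopharyngeal swabs) and E. coli, Enterococcus spp. (rectal swabs) from weaned dairy heifers. Incubation 16-24 h at 35 C. MIC is the lowest concentration preventing visible growth. Values with <= or > lie at the tested range limits. Trimethoprim-sulfamethoxazole is given as the trimethoprim component of a 1:19 mixture.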

CCC[C@@H]1C[C@@H](C(=O)N[C@@H]([C@H]2O[C@H](SC)[C@H](O)[C@@H](O)[C@H]2O)[C@H](C)Cl)N(C)C1 [Clindamycin]
Details	minimum inhibitory concentration [µg/mL]
isolate (source animal id): 10	> 16
isolate (source animal id): 11	> 16
isolate (source animal id): 12	> 16
isolate (source animal id): 19	> 16
isolate (source animal id): 23	> 16
isolate (source animal id): 26	> 16
isolate (source animal id): 98	> 16
isolate (source animal id): 104	> 16
isolate (source animal id): 115	> 16
isolate (source animal id): 117	> 16
isolate (source animal id): 118	> 16
isolate (source animal id): 121	> 16
isolate (source animal id): 124	> 16
isolate (source animal id): 125	> 16
isolate (source animal id): 128	> 16
isolate (source animal id): 131	> 16
isolate (source animal id): 135	> 16
isolate (source animal id): 136	> 16
isolate (source animal id): 140	> 16
isolate (source animal id): 144	> 16
isolate (source animal id): 146	> 16
isolate (source animal id): 150	> 16
isolate (source animal id): 151	> 16
isolate (source animal id): 153	> 16
isolate (source animal id): 155	> 16
isolate (source animal id): 157	> 16
isolate (source animal id): 160	> 16
isolate (source animal id): 164	> 16
isolate (source animal id): 165	> 16
isolate (source animal id): 167	> 16
isolate (source animal id): 168	> 16
isolate (source animal id): 169	> 16
isolate (source animal id): 170	> 16
isolate (source animal id): 171	> 16
isolate (source animal id): 172	> 16
isolate (source animal id): 173	> 16
isolate (source animal id): 174	> 16
isolate (source animal id): 175	> 16
isolate (source animal id): 176	> 16
isolate (source animal id): 177	> 16
isolate (source animal id): 178	> 16
isolate (source animal id): 179	> 16
isolate (source animal id): 182	> 16
isolate (source animal id): 192	> 16
isolate (source animal id): 193	> 16
isolate (source animal id): 195	8 (≈ 18.8 µM)
isolate (source animal id): 196	> 16
isolate (source animal id): 197	> 16
isolate (source animal id): 198	> 16
isolate (source animal id): 199	> 16
isolate (source animal id): 200	> 16
isolate (source animal id): 201	> 16
isolate (source animal id): 203	> 16
isolate (source animal id): 204	> 16
isolate (source animal id): 205	> 16
isolate (source animal id): 206	> 16
isolate (source animal id): 207	> 16
isolate (source animal id): 208	> 16
isolate (source animal id): 209	> 16
isolate (source animal id): 210	> 16
isolate (source animal id): 213	> 16
isolate (source animal id): 216	> 16
isolate (source animal id): 223	> 16
isolate (source animal id): 227	> 16
isolate (source animal id): 229	> 16
isolate (source animal id): 233	> 16
isolate (source animal id): 234	> 16
isolate (source animal id): 237	> 16
isolate (source animal id): 241	> 16
isolate (source animal id): 245	> 16
isolate (source animal id): 247	> 16
isolate (source animal id): 250	> 16
isolate (source animal id): 254	> 16
isolate (source animal id): 255	> 16
isolate (source animal id): 258	> 16
isolate (source animal id): 261	> 16
isolate (source animal id): 262	> 16
isolate (source animal id): 269	> 16
isolate (source animal id): 270	> 16
isolate (source animal id): 274	> 16
isolate (source animal id): 275	> 16
isolate (source animal id): 276	> 16
isolate (source animal id): 277	> 16
isolate (source animal id): 278	> 16
isolate (source animal id): 279	> 16
isolate (source animal id): 280	> 16
isolate (source animal id): 284	> 16
isolate (source animal id): 285	> 16
isolate (source animal id): 287	> 16
isolate (source animal id): 290	> 16
isolate (source animal id): 294	> 16
isolate (source animal id): 295	> 16
isolate (source animal id): 296	> 16
isolate (source animal id): 307	> 16
isolate (source animal id): 310	> 16
isolate (source animal id): 311	> 16
isolate (source animal id): 312	> 16
isolate (source animal id): 313	> 16
isolate (source animal id): 315	> 16
isolate (source animal id): 316	> 16
